Measurements from article PMC12592502, “Unraveling the mechanisms behind the enhanced efficacy of β-lactam-based sideromycins” (Communications Biology, 2025).
Values after ≈ are worked out from the molar mass of the structure shown. Values joined by “and” are separate entries in the source; they are usually repeats but may differ in a detail not shown here. Identical values can stand only once. Like-named read-outs stand apart in the source and are kept apart here.

How the values were obtained:
A. baumannii ATCC 19606 = assay: MIC, broth microdilution (CLSI); format: cell-based, Acinetobacter baumannii
Experimental: (§1) All bacterial strains (see description and sources Table S1) were stored at −80 °C, and grown on tryptone soya agar (TSA) at 35 °C. The iron-deprived (ID)-MHBCA (cation-adjusted Muller-Hinton Broth, Becton Dickinson, Mississauga, ON, Canada) medium was prepared as reported by refs. [21],[50]. Briefly, MHBCA was treated with 10% Chelex® 50-100 mesh (Sigma) and stirred for 6 h at room temperature. The resin was removed by filtration. Divalent Ca^2+ (CaCl2), Mg^2+ (MgCl2), and Zn^2+(ZnSO4), were then added in the iron-depleted medium at 22, 12, and 1 μg/ml respectively. Finally, the pH was adjusted to 7.3, and the medium was sterilized with a 0.2-μm filter. Regular MHBCA (i.e., not treated with Chelex®) was used to compare the inhibitory activity of conjugates in iron-sufficient conditions. The resin used for Chelex treatment was always fresh and had never been regenerated, ensuring consistent iron removal.
(§2) Minimal inhibitory concentrations (MICs) were performed using a broth microdilution technique according to the Clinical and Laboratory Standards Institute (CLSI) guidelines. MICs were determined in MHBCA and in ID-MHBCA. To check the impact of β-lactamases, MICs in the presence of a β-lactamase inhibitor were also determined. The inhibitor was homogenized at 2X the final concentration and added to the bacterial inoculum just before distributing cells into the wells containing the drug dilutions. The final concentration of each inhibitor was 4 μg/mL for clavulanic acid (tested against K. pneumoniae) and 200 μg/mL for 3-aminophenylboronic acid (tested against P. aeruginosa and A. baumannii).

E. coli ATCC 25922 = assay: MIC, broth microdilution (CLSI); format: cell-based, Escherichia coli; conditions: Escherichia coli, ATCC25922, ID-MHBCA + 1 µg/mL supplemental iron
Experimental: as §1, with “conditions.” for “conditions. The resin used for Chelex treatment was always fresh and had never been regenerated, ensuring consistent iron removal.”
as §2

[1] = tested on: P. aeruginosa 1625 ΔmexAB-oprM, ΔmexEF-oprN; assay: MIC, efflux pump mutant; format: cell-based, Pseudomonas aeruginosa; conditions: Pseudomonas aeruginosa
Experimental: as §2

[2] = tested on: P. aeruginosa 1624 ΔmexCD-oprJ, ΔmexEF-oprN; assay: MIC, efflux pump mutant; format: cell-based, Pseudomonas aeruginosa; conditions: Pseudomonas aeruginosa
Experimental: as §2

E. coli lptD4213 = assay: MIC, hyperpermeable mutant; format: cell-based, Escherichia coli
Experimental: as §1, §2

E. coli Δfiu = assay: MIC, Keio mutant; format: cell-based, Escherichia coli; conditions: Escherichia coli, ID-MHBCA
Experimental: as §1, with “conditions.” for “conditions. The resin used for Chelex treatment was always fresh and had never been regenerated, ensuring consistent iron removal.”
as §2

E. coli ΔfhuA = assay: MIC, Keio mutant; format: cell-based, Escherichia coli; conditions: Escherichia coli, ID-MHBCA
Experimental: as §1, with “conditions.” for “conditions. The resin used for Chelex treatment was always fresh and had never been regenerated, ensuring consistent iron removal.”
as §2

E. coli ΔcirA = assay: MIC, Keio mutant; format: cell-based, Escherichia coli; conditions: Escherichia coli, ID-MHBCA
Experimental: as §1, with “conditions.” for “conditions. The resin used for Chelex treatment was always fresh and had never been regenerated, ensuring consistent iron removal.”
as §2

[3] = tested on: P. aeruginosa 2302 MexAB, MexCD, MexEF upregulated; assay: MIC, efflux pump overexpressing strain; format: cell-based, Pseudomonas aeruginosa; conditions: Pseudomonas aeruginosa
Experimental: as §2

K. pneumoniae ATCC 13883 = assay: MIC, broth microdilution (CLSI); format: cell-based, Klebsiella pneumoniae; conditions: for MIC with β-lactamase inhibitor (βI): + 4 μg/mL clavulanic acid
Experimental: as §1, §2

CC1(C)S[C@@H]2[C@H](NC(=O)[C@H](N)c3ccccc3)C(=O)N2[C@H]1C(=O)O [AMP, ampicillin, reference compound]
MIC (A. baumannii ATCC 19606; Acinetobacter baumannii, ATCC19606, ID-MHBCA (−), 0 µg/mL supplemental iron, read-out: MIC): > 200 µM
MIC (A. baumannii ATCC 19606; Acinetobacter baumannii, ATCC19606, ID-MHBCA + 1 µg/mL supplemental iron, read-out: MIC): > 200 µM
MIC (A. baumannii ATCC 19606; Acinetobacter baumannii, ATCC19606, ID-MHBCA, + 200 μg/mL APB, read-out: MIC with β-lactamase inhibitor (βI)): > 200 µM
MIC (A. baumannii ATCC 19606; Acinetobacter baumannii, ATCC19606, MHBCA (+), no inhibitor, read-out: MIC): > 200 µM
MIC (A. baumannii ATCC 19606; Acinetobacter baumannii, ATCC19606, MHBCA, + 200 μg/mL APB, read-out: MIC with β-lactamase inhibitor (βI)): > 200 µM
MIC (A. baumannii ATCC 19606; ID-MHBCA (−), 0 µg/mL supplemental iron, read-out: MIC): >200 µM
MIC (A. baumannii ATCC 19606; MHBCA (+), no inhibitor, read-out: MIC): >200 µM
MIC in combination with PAβN (A. baumannii ATCC 19606; MHBCA, + 25 µg/mL PAβN): > 200 µM
MIC (E. coli ATCC 25922): 25 µM
MIC [1]: > 200 µM
MIC [2]: > 200 µM
MIC (E. coli lptD4213; Escherichia coli, LPTD4213, lptD4213, ID-MHBCA (−)): 0.4 µM (≈ 0.14 µg/mL)
MIC (E. coli lptD4213; Escherichia coli, LPTD4213, lptD4213, MHBCA (+)): 0.4 µM (≈ 0.14 µg/mL)
MIC (E. coli lptD4213; lptD4213, MHBCA (+)): 0.4 µM (≈ 0.14 µg/mL)
MIC (E. coli Δfiu): 25 µM (≈ 8.74 µg/mL)
MIC (E. coli ΔfhuA): 25 µM (≈ 8.74 µg/mL)
MIC (E. coli ΔcirA): 25 µM (≈ 8.74 µg/mL)
MIC [3]: > 200 µM
MIC (K. pneumoniae ATCC 13883; ID-MHBCA (−), 0 µg/mL supplemental iron): >200 µM
MIC with β-lactamase inhibitor (βI) (K. pneumoniae ATCC 13883; ID-MHBCA): 6.3 µM
MIC (K. pneumoniae ATCC 13883; Klebsiella pneumoniae, ATCC13883, ID-MHBCA (−), 0 µg/mL supplemental iron): > 200 µM
MIC (K. pneumoniae ATCC 13883; Klebsiella pneumoniae, ATCC13883, ID-MHBCA + 1 µg/mL supplemental iron): > 200 µM
MIC (K. pneumoniae ATCC 13883; Klebsiella pneumoniae, ATCC13883, MHBCA (+)): > 200 µM
MIC (K. pneumoniae ATCC 13883; MHBCA (+)): >200 µM
MIC with β-lactamase inhibitor (βI) (K. pneumoniae ATCC 13883; MHBCA): 6.3 μM and 6.3^d μM
